pIC50: −log10 of the molar value. Like-named read-outs stand apart in the source and are kept apart here.
How the values were obtained:
human TLR8 = human TLR8 (Homo sapiens (Human), UniProt Q9NR97); assay: TLR8 inhibition reporter assay (HEK-Blue SEAP); conditions: read-out: TLR8 IC50;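 further: SEAP driven by IFN-β minimal promoter carrying NF-κB and AP-1 sites, compounds dosed 0.05 nM to 50 µM for 22 h, inhibition scaled between agonist-plus-DMSO and reference-inhibitor wells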
human TLR9 = human TLR9 (Homo sapiens (Human), UniProt Q9NR96); assay: TLR9 inhibition reporter assay (HEK-Blue SEAP); conditions: read-out: TLR9 IC50;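 further: SEAP driven by an IFN-β minimal promoter with NF-κB and AP-1 sites, read after 22 h, compounds dosed 0.05 nM–50 µM, inhibition scaled between agonist plus DMSO and reference-inhibitor wells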
human TLR7 = human TLR7 (Homo sapiens (Human), UniProt Q9NYK1); assay: TLR7 inhibition reporter assay (HEK-Blue SEAP); type: cell-based
[1] = HEK-Blue cells overexpressing human TLR8, R848 15.9 μM stimulation, SEAP reporter
[2] = HEK-Blue cells overexpressing human TLR9, ODN2006 5 nM stimulation, SEAP reporter
[3] = HEK-Blue cells overexpressing human TLR7, gardiquimod 7.5 μM stimulation, SEAP reporter
[4] = HEK-Blue human TLR8 cells, R848 15.9 μM
[5] = HEK-Blue human TLR9 cells, ODN2006 5 nM
[6] = HEK-Blue human TLR7 cells, gardiquimod 7.5 μM
[7] = HEK-Blue cells overexpressing human TLR8, SEAP reporter, R848 15.9 μM
[8] = HEK-Blue cells overexpressing human TLR9, SEAP reporter, ODN2006 5 nM
[9] = HEK-Blue cells overexpressing human TLR7, SEAP reporter, gardiquimod 7.5 μM

Sequence of human TLR8 (Q9NR97 27-1041): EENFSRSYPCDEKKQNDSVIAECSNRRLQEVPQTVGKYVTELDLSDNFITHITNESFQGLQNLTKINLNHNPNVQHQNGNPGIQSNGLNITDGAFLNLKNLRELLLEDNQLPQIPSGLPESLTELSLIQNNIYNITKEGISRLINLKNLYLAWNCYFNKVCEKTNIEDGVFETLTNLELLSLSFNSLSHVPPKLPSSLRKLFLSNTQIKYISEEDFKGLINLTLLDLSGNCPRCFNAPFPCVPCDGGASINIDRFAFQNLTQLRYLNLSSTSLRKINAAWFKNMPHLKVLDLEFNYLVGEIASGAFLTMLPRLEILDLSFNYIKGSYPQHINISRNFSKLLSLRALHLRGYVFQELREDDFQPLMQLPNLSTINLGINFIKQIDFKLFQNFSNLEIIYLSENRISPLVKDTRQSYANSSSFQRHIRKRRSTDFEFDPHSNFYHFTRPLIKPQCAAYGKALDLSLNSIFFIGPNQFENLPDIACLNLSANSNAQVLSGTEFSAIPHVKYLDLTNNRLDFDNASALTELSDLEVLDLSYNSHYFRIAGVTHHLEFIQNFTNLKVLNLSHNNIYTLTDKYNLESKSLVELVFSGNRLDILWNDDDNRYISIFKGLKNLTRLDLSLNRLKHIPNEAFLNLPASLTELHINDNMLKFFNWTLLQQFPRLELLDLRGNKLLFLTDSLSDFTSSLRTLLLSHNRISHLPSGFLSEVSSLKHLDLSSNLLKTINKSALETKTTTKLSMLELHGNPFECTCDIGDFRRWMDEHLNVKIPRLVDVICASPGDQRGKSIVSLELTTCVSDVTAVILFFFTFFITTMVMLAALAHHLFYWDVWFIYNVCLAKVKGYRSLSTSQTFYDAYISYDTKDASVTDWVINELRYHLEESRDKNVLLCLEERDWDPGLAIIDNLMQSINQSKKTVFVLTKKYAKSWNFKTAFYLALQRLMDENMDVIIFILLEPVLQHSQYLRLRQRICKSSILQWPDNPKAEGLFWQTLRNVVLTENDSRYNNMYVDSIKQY
Sequence of human TLR7 (Q9NYK1 27-1049): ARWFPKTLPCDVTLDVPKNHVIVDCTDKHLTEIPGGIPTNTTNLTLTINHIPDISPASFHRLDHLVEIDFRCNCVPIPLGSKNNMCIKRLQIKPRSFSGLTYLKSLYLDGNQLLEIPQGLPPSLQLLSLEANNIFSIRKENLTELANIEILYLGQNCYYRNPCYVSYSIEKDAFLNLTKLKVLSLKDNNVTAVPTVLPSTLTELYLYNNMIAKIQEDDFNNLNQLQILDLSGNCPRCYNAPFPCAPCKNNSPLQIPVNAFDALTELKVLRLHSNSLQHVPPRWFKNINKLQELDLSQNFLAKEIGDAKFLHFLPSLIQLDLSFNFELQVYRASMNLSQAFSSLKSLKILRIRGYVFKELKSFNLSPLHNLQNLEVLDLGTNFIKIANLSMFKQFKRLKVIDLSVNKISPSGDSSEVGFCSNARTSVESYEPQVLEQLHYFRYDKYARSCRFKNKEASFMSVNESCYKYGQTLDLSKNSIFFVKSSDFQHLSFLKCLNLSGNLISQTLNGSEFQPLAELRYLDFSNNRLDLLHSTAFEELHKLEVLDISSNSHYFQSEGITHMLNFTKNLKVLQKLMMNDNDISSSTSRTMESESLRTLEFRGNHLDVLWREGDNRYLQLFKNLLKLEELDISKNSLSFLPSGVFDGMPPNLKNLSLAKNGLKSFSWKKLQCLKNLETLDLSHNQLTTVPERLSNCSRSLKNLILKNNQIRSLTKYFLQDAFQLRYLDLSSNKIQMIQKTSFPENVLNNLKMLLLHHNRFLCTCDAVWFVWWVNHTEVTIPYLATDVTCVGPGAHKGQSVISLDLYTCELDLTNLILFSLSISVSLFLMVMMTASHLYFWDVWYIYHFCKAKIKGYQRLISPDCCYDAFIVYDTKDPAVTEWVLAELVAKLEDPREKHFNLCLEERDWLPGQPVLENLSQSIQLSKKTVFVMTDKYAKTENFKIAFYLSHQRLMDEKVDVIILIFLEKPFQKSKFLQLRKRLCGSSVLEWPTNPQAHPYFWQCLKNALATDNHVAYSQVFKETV
Sequence of human TLR9 (Q9NR96 26-1032): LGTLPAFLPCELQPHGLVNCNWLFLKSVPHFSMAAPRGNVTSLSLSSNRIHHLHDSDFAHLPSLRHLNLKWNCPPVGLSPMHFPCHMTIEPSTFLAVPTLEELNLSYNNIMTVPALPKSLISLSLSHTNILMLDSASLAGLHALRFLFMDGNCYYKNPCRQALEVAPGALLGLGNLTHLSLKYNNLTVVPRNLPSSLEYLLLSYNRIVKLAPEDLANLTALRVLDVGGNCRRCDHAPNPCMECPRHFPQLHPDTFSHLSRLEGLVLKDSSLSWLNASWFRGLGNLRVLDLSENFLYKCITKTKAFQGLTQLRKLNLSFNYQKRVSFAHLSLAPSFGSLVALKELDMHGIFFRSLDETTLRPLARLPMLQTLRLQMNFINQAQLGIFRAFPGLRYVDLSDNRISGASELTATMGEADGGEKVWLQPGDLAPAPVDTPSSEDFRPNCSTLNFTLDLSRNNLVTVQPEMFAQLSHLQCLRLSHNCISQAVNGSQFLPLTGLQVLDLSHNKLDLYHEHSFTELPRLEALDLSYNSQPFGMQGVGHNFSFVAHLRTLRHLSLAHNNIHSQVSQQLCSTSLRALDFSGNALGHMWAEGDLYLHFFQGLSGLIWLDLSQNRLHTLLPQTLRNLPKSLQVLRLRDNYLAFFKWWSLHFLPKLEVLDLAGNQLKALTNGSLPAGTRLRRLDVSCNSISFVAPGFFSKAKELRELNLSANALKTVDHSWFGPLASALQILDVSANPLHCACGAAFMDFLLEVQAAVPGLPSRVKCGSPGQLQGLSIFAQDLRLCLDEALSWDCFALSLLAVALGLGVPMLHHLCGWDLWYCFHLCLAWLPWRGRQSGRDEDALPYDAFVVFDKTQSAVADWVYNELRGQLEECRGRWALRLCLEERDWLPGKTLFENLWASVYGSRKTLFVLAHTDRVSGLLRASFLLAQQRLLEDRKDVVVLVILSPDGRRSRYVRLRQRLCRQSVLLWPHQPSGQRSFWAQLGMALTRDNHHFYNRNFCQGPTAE

COc1cc(-c2[nH]c3ccc(C4CCC(NCC(=O)N(C)C)CC4)nc3c2C(C)C)cn2ncnc12 (stereo not drawn) [Example 181] gave a pIC50 (human TLR8; [1]) of 7.89, a pIC50 (human TLR9; [2]) of 6.25 and a pIC50 (human TLR7; [3]) of 8.77.
For Cc1c(-c2[nH]c3ccc(N4[C@@H]5CC[C@H]4CNC5)nc3c2C(C)C)cn2ncnc2c1C [Example 979], the pIC50 (human TLR8; [4]) was 9.10, the pIC50 (human TLR9; [5]) was 5.37 and the pIC50 (human TLR7; [6]) was 8.96.
COc1cc(-c2[nH]c3ccc(C4CCC(N(C)CCO)CC4)nc3c2C(C)C)cn2ncnc12 (stereo not drawn) [Example 191] was tested, and the pIC50 (human TLR8; [1]) was 8.57, the pIC50 (human TLR9; [2]) was 6.69 and the pIC50 (human TLR7; [3]) was 9.05.
Compound COc1cc(-c2[nH]c3ccc(N4CCN(CCC(N)=O)CC4)nc3c2C(C)C)cn2ncnc12 [Example 137] has a pIC50 (human TLR8; [1]) of 8.89, a pIC50 (human TLR9; [2]) of 5.07 and a pIC50 (human TLR7; [3]) of 8.25.
Work on COc1ccc(-c2[nH]c3ccc(C4CCN(C5CCN(CC(C)C)CC5)CC4)nc3c2C)cc1OC [Example 5, 2-(3,4-dimethoxyphenyl)-5-(1′-isobutyl-[1,4′-bipiperidin]-4-yl)-3-methyl-1H-pyrrolo[3,2-b]pyridine] yielded a pIC50 (human TLR8; [1]) of 5.39, a pIC50 (human TLR9; [2]) of 7.43 and a pIC50 (human TLR7; [3]) of 6.33.
Work on COc1cc(-c2[nH]c3ccc(C4CC(N(C)CC5(C)COC5)C4)nc3c2C(C)C)cn2ncnc12 (stereo not drawn) [Example 643] yielded a pIC50 (human TLR8; [7]) of 8.28, a pIC50 (human TLR9; [8]) of 5.50 and a pIC50 (human TLR7; [9]) of 8.27.
COCCN(C)C1CCC(c2ccc3[nH]c(-c4cn5ncnc5c(C)c4C)c(C(C)C)c3n2)CC1 (stereo not drawn) [Example 391] showed a pIC50 (human TLR8; [1]) of 7.85, a pIC50 (human TLR9; [2]) of 5.61 and a pIC50 (human TLR7; [3]) of 8.59.
COc1cc(-c2[nH]c3ccc(C4CCC(N(CCS(C)(=O)=O)CCS(C)(=O)=O)C4)nc3c2C(C)C)cn2ncnc12 (stereo not drawn) [Example 726] gave a pIC50 (human TLR8; [7]) of 5.68, a pIC50 (human TLR9; [8]) of 4.40 and a pIC50 (human TLR7; [9]) of 5.87.
CC(C)c1c(-c2cc(CO)c3ncnn3c2)[nH]c2ccc(N3CCC(NCC#N)CC3)nc12 [Example 83] was tested, and the pIC50 (human TLR8; [1]) was 8.16, the pIC50 (human TLR9; [2]) was 5.26 and the pIC50 (human TLR7; [3]) was 8.44.
For Cc1c(-c2[nH]c3ccc(C4CCC(N(CC#N)CC(=O)N(C)C)CC4)nc3c2C(C)C)cn2ncnc2c1C (stereo not drawn) [Example 456], the pIC50 (human TLR8; [7]) was 8.09, the pIC50 (human TLR9; [8]) was 5.11 and the pIC50 (human TLR7; [9]) was 8.59.
With Cc1c(-c2[nH]c3ccc(C4CN(C(=O)CN(C)C)C4)nc3c2C(C)C)cn2ncnc2c1C [Example 650] the pIC50 (human TLR8; [7]) was 7.74, the pIC50 (human TLR9; [8]) was 5.51 and the pIC50 (human TLR7; [9]) was 8.17.
With Cc1c(-c2[nH]c3ccc(C4CCN(C(=O)CN(C)C)CC4)nc3c2C(C)C)cn(C)c(=O)c1Cl [Example 570] the pIC50 (human TLR8; [7]) was 7.24, the pIC50 (human TLR9; [8]) was 6.84 and the pIC50 (human TLR7; [9]) was 8.00.
Cc1c(-c2[nH]c3ccc(N4CCN(C(=O)CN5CC6(C5)CS(=O)(=O)C6)CC4)nc3c2C(C)C)cn2ncnc2c1C [Example 951] was tested, and the pIC50 (human TLR8; [4]) was 8.82, the pIC50 (human TLR9; [5]) was less than 4.30 and the pIC50 (human TLR7; [6]) was 8.19.
With COCc1cc(-c2[nH]c3ccc(C4CCC(NCC(=O)N(C)C)CC4)nc3c2C(C)C)cn2ncnc12 (stereo not drawn) [Example 230] the pIC50 (human TLR8; [1]) was 7.48, the pIC50 (human TLR9; [2]) was 5.61 and the pIC50 (human TLR7; [3]) was 7.42.
For COc1cc(-c2[nH]c3ccc(OC4CCC(N(C)C)CC4)nc3c2C(C)C)cn2ncnc12 (stereo not drawn) [Example 610, 4-((3-isopropyl-2-(8-methoxy-[1,2,4]triazolo[1,5-a]pyridin-6-yl)-1H-pyrrolo[3,2-b]pyridin-5-yl)oxy)-N,N-dimethylcyclohexan-1-amine], the pIC50 (human TLR8; [7]) was 7.85, the pIC50 (human TLR9; [8]) was 5.75 and the pIC50 (human TLR7; [9]) was 8.82.
Cc1c(-c2[nH]c3ccc(N4CCN(C(=O)CN(C)C(C)(C)C)[C@@H](C)C4)nc3c2C(C)C)cn2ncnc2c1C [Example 904] showed a pIC50 (human TLR8; [4]) of 8.38, a pIC50 (human TLR9; [5]) of 4.83 and a pIC50 (human TLR7; [6]) of 9.00.
COc1cc(-c2[nH]c3cc(F)c(C4CCC(NC5COC5)CC4)nc3c2C(C)C)cn2ncnc12 (stereo not drawn) [Example 345] gave a pIC50 (human TLR8; [1]) of 9.17, a pIC50 (human TLR9; [2]) of 5.78 and a pIC50 (human TLR7; [3]) of 9.68.
Work on COc1cc(-c2[nH]c3cc(C)c(C4CCC(NC5CCOC5)CC4)nc3c2C(C)C)cn2ncnc12 (stereo not drawn) [Example 328] yielded a pIC50 (human TLR8; [1]) of 8.96, a pIC50 (human TLR9; [2]) of 6.24 and a pIC50 (human TLR7; [3]) of 10.10.
Cc1c(-c2[nH]c3ccc(C4CN(CC(C)(C)O)C4)nc3c2C(C)C)cn2ncnc2c1C [Example 654] was tested, and the pIC50 (human TLR8; [7]) was 8.02, the pIC50 (human TLR9; [8]) was 5.31 and the pIC50 (human TLR7; [9]) was 8.19.
Cc1cc2[nH]c(-c3cc(C)c4ncnn4c3)c(C(C)C)c2nc1C1CCN(C2COC2)CC1 [Example 578] showed a pIC50 (human TLR8; [7]) of 6.54, a pIC50 (human TLR9; [8]) of 5.38 and a pIC50 (human TLR7; [9]) of 9.28.
For Cc1c(-c2[nH]c3ccc(N4CCC(N(Cc5cn(C)nn5)Cc5cn(C)nn5)CC4)nc3c2C(C)C)cn2ncnc2c1C [Example 73], the pIC50 (human TLR8; [1]) was 8.24, the pIC50 (human TLR9; [2]) was 4.60 and the pIC50 (human TLR7; [3]) was 7.54.
Cc1c(-c2[nH]c3ccc(C4CCC(NC(C)(C)C)CC4)nc3c2C(C)C)cn2ncnc2c1C (stereo not drawn) [Example 1054] was tested, and the pIC50 (human TLR8; [4]) was 8.77, the pIC50 (human TLR9; [5]) was 5.77 and the pIC50 (human TLR7; [6]) was 8.27.
Work on Cc1c(-c2[nH]c3ccc(C4CCC(NC5CCS(=O)(=O)C5)CC4)nc3c2C(C)C)cn2ncnc2c1C (stereo not drawn) [Example 470] yielded a pIC50 (human TLR8; [7]) of 8.22, a pIC50 (human TLR9; [8]) of 5.13 and a pIC50 (human TLR7; [9]) of 8.89.

— patent publication US10544143B2, “4-azaindole compounds” (BRISTOL-MYERS SQUIBB COMPANY, priority 2017, dated 2020)
